# Source: US20260007758A1, “SO[…]-2 RECEPTOR (SST2R) NON-PEPTIDE DRUG CONJUGATES AND USES THEREOF” (Crinetics Pharmaceuticals, Inc., priority 2024, published 2026)
# Like-named read-outs stand apart in the source and are kept apart here. *1 amine or outer side, *2 acyl side, *3 side chain or, on linkers, in order; H or OH if unused. Where a SMILES comes first, the peptide text is derived from it. [ ]: non-standard residue; d: D form. The star is where a group is joined. X3 = Cc1cc(F)cc(-c2cnc(NCCNC(=O)CCOCCOCCOCCOCCC(=O)*)c(-c3nc4ccc(Cl)cc4[nH]3)c2N2CCC(N)CC2)c1; Dolaproine = CO[C@@H]([C@@H]1CCCN1)[C@@H](C)C(=O)O; Dil = CC[C@H](C)[C@H](NC)[C@@H](CC(=O)O)OC; PABC = O=C(OCc1ccc(N[*:1])cc1)[*:2]; X2 = C[C@@H](N*)[C@@H](O)c1ccccc1; Cit = NC(=O)NCCC[C@H](N)C(=O)O; NMeV = CN[C@H](C(=O)O)C(C)C; Ahx = NCCCCCC(=O)O
# How the values were obtained:
# Type in all cases: cell-based
# SST2 = target: T1, SST2 (Homo sapiens, UniProt P30874); assay: PathHunter CHO-K1 SST2 Internalization Assay; conditions: PathHunter CHO-K1 SST2 cells, 90 min at 37 C, luminescence
# T1 construct: host or cells: PathHunter CHO-K1 SST2 cells
# Description: NDCs of the present invention were assessed in vitro using the human PathHunter CHO-K1 SST2 β-arrestin2 and PathHunter CHO-K1 SST2 Internalization Assays from DiscoverX. The CHO-K cells were seeded in 20 μLs of cell culture medium in a white-walled 384 well tissue culture-compatible plate at a density of 2500 cells/well. After a 48-hour incubation, cells were treated with 5 μLs of a 1:3 serially diluted SST2 NDC prepared at 5× concentration with a final top compound concentration of 10 uM for 90 min at 37 C and in 5% CO2. 11 dilutions were tested as well as one treatment that was compound free. After incubation, the media containing treatments were discarded and 20 μL of a working solution of Beta-Glo from Promega Beta-Go Assay System was added to each well. The plate was then incubated for 60 min at room temperature in the dark. Luminescence was measured using a Tecan plate reader. IC50 curves were generated using the nonlinear regression analysis (four-parameters) with GraphPad Prism 9. Results were the average of duplicates and are corrected for background.
# [1] = target: T2, human somatostatin receptor subtype 2 (Homo sapiens, UniProt P30874); assay: Functional assay for SSTR2 agonists (HTRF cAMP); conditions: CHO-K1 cells stably expressing human SST2, NKH477-stimulated cAMP, 20 min at 37 C
# T2 construct: expressed in transfected cells
# Source text: General overview: All five SSTR subtypes are Gi coupled G-protein coupled receptors (GPCRs) that lead to decreases in intracellular cyclic AMP (cAMP) when activated by an agonist. Therefore, measurement of intracellular cAMP levels can be used to assess whether compounds of the invention are agonists of SSTR subtypes (John Kelly, Troy Stevens, W. Joseph Thompson, and Roland Seifert, Current Protocols in Pharmacology. 2005, 2.2.1-2.2). One example of an intracellular cAMP assay is described below.
# Four days prior to the assay, 2,000 Chinese hamster ovary cells (CHO-K1, ATCC #CCL-61) stably expressing the human somatostatin receptor subtype 2 are plated in each well of a 96-well tissue culture-treated plate in Ham's F12 growth media (ThermoFisher #10-080-CM) supplemented with 10% donor bovine serum (Gemini Bio-Products #100-506), 100 U/mL penicillin; 100 ug/mL streptomycin, 2 mM L-glutamine (Gemini Bio-Products #400-110) and 0.2 mg/mL hygromycin B (GoldBio #31282-04-9). The cells are cultured at 37° C., 5% CO2 and 95% humidity. cAMP is measured with HTRF dynamic cAMP assay (Cisbio. #62AM5PEJ) per manufacturer's instructions. […] The cells are incubated for 20 minutes at 37° C. (the final concentration of the compounds of the invention are typically 0-10,000 nM). The cells are treated with 50 μL of lysis buffer (HRTF cAMP kit, Cisbio) and incubated at room temperature for 30 minutes with rotary shaking at 600 rpm, and then diluted with 150 μL of stimulation buffer and shaken for an additional five minutes at 300 rpm. The lysate is transferred to 384-well plates and incubated for 1-24 hours at room temperature, and cAMP accumulation is detected by d2-labeled cAMP and Anti-cAMP-Cryptate. The time-resolved fluorescent signal is read using a m1000 Pro (Tecan) or CLARIOStar (BMG Labtech) microplate reader, where the samples are excited with light at 340 nm and emission light is measured at 620 nm and 665 nm. The data is expressed as a calculation of the fluorescence ratio (665 nm/620 nm). The intracellular cAMP concentrations are calculated by regression to a standard curve and are plotted vs, the concentration of the compounds of the invention. The EC50 of the compounds are calculated using standard methods. All data manipulations are in GraphPad Prism v9 (GraphPad, San Diego, CA).
# [2] = test system: NCI-H524 human small cell lung cancer cells; assay: H524 assay: inhibition of cell proliferation (CellTiter Glo); conditions: 2 h treatment, washout, additional 70 h incubation
# Description: NDCs of the present invention were assessed in an in vitro assay evaluating the inhibition of cell proliferation. NCI-H524 (ATCC) human small cell lung cancer cells were plated in 96-well V-bottom plates (Costar) at a concentration of 5,000 cells/well. 24 h later, the cells were treated for 2 h with a NDC. NDC starting dose was 1 uM and two-fold serial dilutions were done for a total of 11 points. After 2 h of treatment, cells were spun down, and the drug-containing media was removed, and fresh complete media was added and used to resuspend the cells, which were spun again. After removal of the media, the cells were resuspended in complete medium and incubated for an additional 70 h. Cell proliferation was assessed using the CellTiter Glo Assay according to the standard protocol (Promega). Luminescence was measured using a TECAN plate reader. Percent proliferation inhibition was calculated using the following formula: % inhibition=(Luminescence Control−Luminescence Treatment)/Luminescence Control*100. IC50 curves were generated using the nonlinear regression analysis (four-parameter) with GraphPad Prism 9.
# T2 sequence (P30874 whole entry): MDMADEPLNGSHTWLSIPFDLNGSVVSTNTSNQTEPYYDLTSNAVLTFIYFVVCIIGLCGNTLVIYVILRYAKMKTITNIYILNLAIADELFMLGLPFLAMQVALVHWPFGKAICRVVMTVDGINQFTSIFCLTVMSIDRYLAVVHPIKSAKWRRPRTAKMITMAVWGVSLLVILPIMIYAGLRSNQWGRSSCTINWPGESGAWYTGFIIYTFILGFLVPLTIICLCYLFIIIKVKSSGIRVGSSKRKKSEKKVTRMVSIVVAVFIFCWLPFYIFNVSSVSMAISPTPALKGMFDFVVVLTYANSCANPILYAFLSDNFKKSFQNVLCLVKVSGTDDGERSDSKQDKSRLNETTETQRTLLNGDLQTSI
# T1 sequence (P30874 whole entry): as above
SMILES,EC50 [2] [nM],EC50 ([1]; read-out: hSST2 cAMP Avg EC50) [nM],also measured
CC[C@@H](C)[C@H]([C@H](CC(=O)N1CCC[C@@H]1[C@@H](OC)[C@H](C)C(=O)N[C@@H](C)[C@H](O)c1ccccc1)OC)N(C)C(=O)[C@H](NC(=O)[C@@H](C(C)C)N(C)C(=O)OCc1ccc(NC(=O)[C@@H](CCCNC(N)=O)NC(=O)[C@H](NC(=O)[C@@H](CCC(=O)O)NC(=O)CCOCCOCCNC(=O)CCc2cn(CCCC[C@H](NC(=O)CCOCCC(=O)NCCNc3ncc(-c4cc(C)cc(F)c4)c(N4CCC(N)CC4)c3-c3nc4ccc(Cl)cc4[nH]3)C(=O)NCCOCCOCCC(=O)N[C@@H](CCC(=O)O)C(=O)N[C@H](C(=O)N[C@@H](CCCNC(N)=O)C(=O)Nc3ccc(COC(=O)N(C)[C@H](C(=O)N[C@H](C(=O)N(C)[C@@H]([C@@H](C)CC)[C@@H](CC(=O)N4CCC[C@H]4[C@H](OC)[C@@H](C)C(=O)N[C@H](C)[C@@H](O)c4ccccc4)OC)C(C)C)C(C)C)cc3)C(C)C)nn2)C(C)C)cc1)C(C)C [Compound 245],140,–,EC50 (SST2; Internalization EC50 (nM)): 440 nM; EC50 ([1]; hSST2 cAMP Avg EC50 (nM)): 11 nM
CC[C@H](C)[C@@H]([C@@H](CC(=O)N1CCC[C@H]1[C@H](OC)[C@@H](C)C(=O)N[C@H](C)[C@@H](O)c1ccccc1)OC)N(C)C(=O)[C@@H](NC(=O)[C@H](C(C)C)N(C)C(=O)OCc1ccc(NC(=O)[C@H](C)NC(=O)[C@@H](NC(=O)CCOCCC(=O)N(C)CC(=O)NCCNc2ncc(-c3cc(C)cc(F)c3)c(N3CCC(N)CC3)c2-c2cc3ccc(Cl)cc3[nH]2)C(C)C)c(O[C@@H]2O[C@H](C(=O)NCCN)[C@@H](O)[C@H](O)[C@H]2O)c1)C(C)C [Compound 47],–,0.31,–
CC[C@H](C)[C@@H]([C@@H](CC(=O)N1CCC[C@H]1[C@H](OC)[C@@H](C)C(=O)N[C@H](C)[C@@H](O)c1ccccc1)OC)N(C)C(=O)[C@@H](NC(=O)[C@H](C(C)C)N(C)C(=O)OCc1ccc(NC(=O)[C@H](CCCNC(N)=O)NC(=O)[C@@H](NC(=O)CCOCCC(=O)NCCNc2ncc(-c3cc(C)cc(F)c3)c(N3CCC(N)CC3)c2-c2nc3ccc(Cl)cc3[nH]2)C(C)C)cc1C(=O)NCC(=O)O)C(C)C [Compound 60],–,0.17,–
CC[C@H](C)[C@@H]([C@@H](CC(=O)N1CCC[C@H]1[C@H](OC)[C@@H](C)C(=O)N[C@H](C)[C@@H](O)c1ccccc1)OC)N(C)C(=O)[C@@H](NC(=O)[C@H](C(C)C)N(C)C(=O)OCc1ccc(NC(=O)[C@H](CCCNC(N)=O)NC(=O)[C@@H](NC(=O)CCCCCNC(=O)[C@H](CCC(N)=O)NC(=O)[C@H](CCC(N)=O)NC(=O)CCOCCOCCOCCOCCC(=O)NCCNc2ncc(-c3cc(C)cc(F)c3)c(N3CCC(N)CC3)c2-c2nc3ccc(Cl)cc3[nH]2)C(C)C)cc1)C(C)C [Compound 143] (X3-QQ[Ahx]V[Cit][PABC][NMeV]V[Dil][Dolaproine]-X2),–,0.4,–
CC[C@H](C)[C@@H]([C@@H](CC(=O)N1CCC[C@H]1[C@H](OC)[C@@H](C)C(=O)N[C@H](C)[C@@H](O)c1ccccc1)OC)N(C)C(=O)[C@@H](NC(=O)[C@H](C(C)C)N(C)C(=O)OCc1ccc(NC(=O)[C@H](CCCNC(N)=O)NC(=O)[C@@H](NC(=O)CCOCCC(=O)NCCNc2ncc(-c3cc(C)cc(F)c3)c(N3CCC(N)CC3)c2-c2nc3ccc(Cl)cc3[nH]2)C(C)C)c(O[C@@H]2O[C@H](C(=O)NCCNC(=O)CCCCCCCCCCCCCCC(=O)O)[C@@H](O)[C@H](O)[C@H]2O)c1)C(C)C [Compound 53],200,0.48,–
CC[C@H](C)[C@@H]([C@@H](CC(=O)N1CCC[C@H]1[C@H](OC)[C@@H](C)C(=O)N[C@H](C)[C@@H](O)c1ccccc1)OC)N(C)C(=O)[C@@H](NC(=O)[C@H](C(C)C)N(C)C(=O)OCc1ccc(NC(=O)[C@H](C)NC(=O)[C@@H](NC(=O)CCCC(=O)N(C)CC(=O)NCCNc2ncc(-c3cc(C)cc(F)c3)c(N3CCC(N)CC3)c2-c2nc3ccc(Cl)cc3[nH]2)C(C)C)c(O[C@@H]2O[C@H](C(=O)NCCN)[C@@H](O)[C@H](O)[C@H]2O)c1)C(C)C [Compound 45],–,1.3,–
CC[C@H](C)[C@@H]([C@@H](CC(=O)N1CCC[C@H]1[C@H](OC)[C@@H](C)C(=O)N[C@H](C)[C@@H](O)c1ccccc1)OC)N(C)C(=O)[C@@H](NC(=O)[C@H](C(C)C)N(C)C(=O)OCc1ccc(NC(=O)[C@H](CCCNC(N)=O)NC(=O)[C@@H](NC(=O)CCCC(=O)N(C)CC(=O)N(C)CC(=O)N(C)CC(=O)NCCNc2ncc(-c3cc(C)cc(F)c3)c(N3CCC(N)CC3)c2-c2nc3ccc(Cl)cc3[nH]2)C(C)C)c(O[C@@H]2O[C@H](C(=O)O)[C@@H](O)[C@H](O)[C@H]2O)c1)C(C)C [Compound 130],3800,–,–
CC[C@H](C)[C@@H]([C@@H](CC(=O)N1CCC[C@H]1[C@H](OC)[C@@H](C)C(=O)N[C@H](C)[C@@H](O)c1ccccc1)OC)N(C)C(=O)[C@@H](NC(=O)[C@H](C(C)C)N(C)C(=O)OCc1ccc(NC(=O)[C@H](C)NC(=O)[C@@H](NC(=O)CCOCCC(=O)N(C)CC(=O)NCCNc2ncc(-c3cc(C)cc(F)c3)c(N3CCC(N)CC3)c2-c2cc3ccc(Cl)cc3[nH]2)C(C)C)c(O[C@@H]2O[C@H](C(=O)NCCN)[C@@H](O)[C@H](O)[C@H]2O)c1)C(C)C [Compound 46],–,0.23,–
CC[C@H](C)[C@@H]([C@@H](CC(=O)N1CCC[C@H]1[C@H](OC)[C@@H](C)C(=O)N[C@H](C)[C@@H](O)c1ccccc1)OC)N(C)C(=O)[C@@H](NC(=O)[C@H](C(C)C)N(C)C(=O)OCc1ccc(NC(=O)[C@H](CCCNC(N)=O)NC(=O)[C@@H](NC(=O)CCOCCC(=O)NCCNc2ncc(-c3cc(C)cc(F)c3)c(N3CCC(N)CC3)c2-c2nc3ccc(Cl)cc3[nH]2)C(C)C)cc1C(=O)O)C(C)C [Compound 7],–,0.26,–
CC[C@H](C)[C@@H]([C@@H](CC(=O)N1CCC[C@H]1[C@H](OC)[C@@H](C)C(=O)N[C@H](C)[C@@H](O)c1ccccc1)OC)N(C)C(=O)[C@@H](NC(=O)[C@H](C(C)C)N(C)C(=O)OCc1ccc(O[C@@H]2O[C@H](C(=O)O)[C@@H](O)[C@H](O)[C@H]2O)c(NC(=O)[C@H](CCCNC(N)=O)NC(=O)[C@@H](NC(=O)CCOCCC(=O)NCCNc2ncc(-c3cc(C)cc(F)c3)c(N3CCC(N)CC3)c2-c2nc3ccc(Cl)cc3[nH]2)C(C)C)c1)C(C)C [Compound 248],3.2,–,–
CC[C@H](C)[C@@H]([C@@H](CC(=O)N1CCC[C@H]1[C@H](OC)[C@@H](C)C(=O)N[C@H](C)[C@@H](O)c1ccccc1)OC)N(C)C(=O)[C@@H](NC(=O)[C@H](C(C)C)N(C)C(=O)OCc1ccc(NC(=O)[C@H](C)NC(=O)[C@@H](NC(=O)C[C@@H](N)C(=O)NCCOCCC(=O)NCCNc2ncc(-c3cc(C)cc(F)c3)c(N3CCC(NC)CC3)c2-c2nc3ccc(Cl)cc3[nH]2)C(C)C)c(O[C@@H]2O[C@H](C(=O)O)[C@@H](O)[C@H](O)[C@H]2O)c1)C(C)C [Compound 135],–,0.42,EC50 (SST2; read-out: Internalization EC50): 3.6 nM
